{"source": "patent US8318792B2", "about": "“Therapeutic agent for amyotrophic lateral sclerosis” (Nippon Medical School Foundation, priority 2006, dated 2012)", "assay_type_in_all_cases": "in vivo, mouse", "key": {"G1H-G93A transgenic mice [1]": {"tested_on": "G1H-G93A transgenic mice", "assay": "Exercise tolerance test: footprint test", "conditions": "5 mg/kg oral daily from 80th day (before onset), score 0-4", "description": "(§1) The following five kinds of exercise tolerance tests were conducted every fifth day from the 70th day after birth to evaluate the ability to exercise in the respective exercise tolerance tests. That is, the days for the exercise tolerance tests were every fifth days, such as the 70th day, 75th day, 80th day, 85th day and so on, after birth. The exercise tolerance tests were conducted throughout the survival period, and the post-mortem evaluation was based on the definitions of the following five kinds of exercise tolerance tests.\nBoth hindlimbs of a mouse are dipped in a black ink bottle, and then the mouse is allowed to walk on white paper. The footprints of the two hindlimbs of the mouse after the walking are analyzed. […] The post-mortem evaluation of the footprint test is defined as score 4."}, "G1H-G93A transgenic mice [2]": {"tested_on": "G1H-G93A transgenic mice", "assay": "Exercise tolerance test: extension reflex test", "conditions": "for Extension reflex test score: 5 mg/kg oral daily from 80th day (before onset), score 0-2", "description": "as §1\nAs for extension reflex, extension of the hindlimbs is normally observed when a mouse is suspended in the air by its tail.\nThe evaluation of extension reflex test of the mice was performed based on the following criteria: Score 0=Extension reflex is recognized in both of the hindlimbs; Score 1=Extension reflex is recognized only one hindlimb; and Score 2=Extension reflex is not recognized in both of the hindlimbs. The post-mortem evaluation of the extension reflex test is defined as score 2."}, "G1H-G93A transgenic mice [3]": {"tested_on": "G1H-G93A transgenic mice", "assay": "Clinical symptomatological evaluation (day of onset, survival period, disease period, stage periods)", "description": "1) The procedure of concentration adjustment, and the amount and the procedure of administration of the compound (a) were as described below. As a base, 0.5% methylcellulose is prepared. 5 mg of the compound (a) is pulverized in an agate mortar, and then a small amount of 0.5% methylcellulose is added to form a complete suspension. Subsequently, a small amount of 0.5% methylcellulose is added gradually, so that finally 5 mg of the compound (a) is suspended in 10 mL of 0.5% methylcellulose. A sample of 5 mg of compound (a)/10 mL of 0.5% methylcellulose (5 mg/10 mL) was prepared by the above-described procedure, and thus the compound (a) was orally administered once a day in a dose of 5 mg per kg of the mouse body weight (5 mg/kg).\nAs the experimental animal, male transgenic mice over-expressing a high copy number (25 copies) of mutated human SOD1 gene with a G93A point mutation, i.e., B6SJL-TgN [SOD1-G93A]1Gur (G1H-G93A transgenic mice, JR2726; Hemizygote) (Gurney M E, et al., Science, 264, 1772-1775, 1994), were purchased from Jackson Laboratory (Bar Harbor, USA) and used. At the same time, wild-type male mice from the same litter, B6SJL-TgN[SOD1-G93A]1Gur (Wild-type), were also purchased from Jackson Laboratory and used.\nThe mice were subjected to a clinical symptomatological evaluation everyday. The clinical symptomatological evaluation was performed from one week after the arrival from Jackson Laboratory. […] The day of onset, the survival period and the disease period were indicated by the number of days. In regard to the indication of the number of days of the disease period, one day (one disease day) corresponds to within 24 hours from the onset (the “onset” is determined by the observation of the clinical symptomatological evaluation stage 1), and two days (two disease days) corresponds to more than 24 hours after and within 48 hours from the onset. Subsequent disease days after the onset were determined in the same manner.\nThe mice were divided into seven experimental groups, to which a placebo, the compound (a), compound (b), compound (c) or allopurinol was administered. That is, the seven groups consist of: an experimental group administered with placebo; a treatment experimental group administered with compound (a) before onset; a treatment experimental group administered with compound (a) after onset; a treatment experimental group administered with compound (b) before onset; a treatment experimental group administered with compound (c) before onset; a treatment experimental group administered with compound (c) after onset; and a treatment group administered with allopurinol before onset. Details of the respective groups will be described in the following.\nTen G1H-G93A transgenic mice were used. From the 80th day after birth, 5 mg/kg of the compound (a) was orally administered everyday. […]\nTen G1H-G93A transgenic mice were used. From the 80th day after birth, 5 mg/kg of the compound (b) was orally administered everyday.\nTen G1H-G93A transgenic mice were used. From the 80th day after birth, 5 mg/kg of the compound (c) was orally administered everyday. […]\nTen G1H-G93A transgenic mice were used. From the 80th day after birth, 5 mg/kg of allopurinol was orally administered everyday.\nIn regard to the results of the clinical symptomatological evaluation, the day of onset, the survival period (days taken to show quadriplegia and to reach the moribund state), the disease period (days taken to show quadriplegia and to reach the moribund state, from the day of onset), and the time periods for the respective stages of the clinical symptomatological evaluation, were indicated by the average±standard deviation. In regard to the results of the exercise tolerance test, the score values of the respective exercise tolerance tests, including the extension reflex test, inclined plane test, footprint test, rotarod test and beam balance test, were indicated by the average±standard deviation. […]"}, "[4]": {"conditions": "5 mg/kg oral daily from 80th day after birth (before onset), Mann-Whitney's U test, log-rank test"}, "[5]": {"conditions": "5 mg/kg oral once a day from 80th day after birth (before onset), average±SD"}}, "data": [{"smiles": "N#Cc1cc(-c2n[nH]c(-c3ccncc3)n2)ccn1", "note": "[compound (b), 4-(5-pyridin-4-yl-1H-[1,2,4]triazol-3-yl)pyridine-2-carbonitrile]", "values": [{"measurement": "Footprint test score", "setting": "G1H-G93A transgenic mice [1]; 70th day after birth", "result": "0.0±0.0"}, {"measurement": "Footprint test score", "setting": "G1H-G93A transgenic mice [1]; 75th day after birth", "result": "0.0±0.0"}, {"measurement": "Footprint test score", "setting": "G1H-G93A transgenic mice [1]; 80th day after birth", "result": "0.0±0.0"}, {"measurement": "Footprint test score", "setting": "G1H-G93A transgenic mice [1]; 85th day after birth", "result": "0.0±0.0"}, {"measurement": "Footprint test score", "setting": "G1H-G93A transgenic mice [1]; 90th day after birth", "result": "0.0±0.0"}, {"measurement": "Footprint test score", "setting": "G1H-G93A transgenic mice [1]; 95th day after birth", "result": "0.0±0.0"}, {"measurement": "Footprint test score", "setting": "G1H-G93A transgenic mice [1]; 100th day after birth", "result": "0.0±0.0"}, {"measurement": "Footprint test score", "setting": "G1H-G93A transgenic mice [1]; 105th day after birth", "result": "0.0±0.0"}, {"measurement": "Footprint test score", "setting": "G1H-G93A transgenic mice [1]; 110th day after birth", "result": "0.1±0.3"}, {"measurement": "Footprint test score", "setting": "G1H-G93A transgenic mice [1]; 115th day after birth", "result": "0.6±0.7"}, {"measurement": "Footprint test score", "setting": "G1H-G93A transgenic mice [1]; 120th day after birth", "result": "1.8±1.0"}, {"measurement": "Footprint test score", "setting": "G1H-G93A transgenic mice [1]; 125th day after birth", "result": "2.8±0.4"}, {"measurement": "Footprint test score", "setting": "G1H-G93A transgenic mice [1]; 130th day after birth", "result": "3.4±0.5"}, {"measurement": "Footprint test score", "setting": "G1H-G93A transgenic mice [1]; 135th day after birth", "result": "3.9±0.3"}, {"measurement": "Footprint test score", "setting": "G1H-G93A transgenic mice [1]; 140th day after birth", "result": "4.0±0.0"}, {"measurement": "Extension reflex test score", "setting": "G1H-G93A transgenic mice [2]; 70th day after birth, 5 mg/kg", "result": "0.0±0.0"}, {"measurement": "Extension reflex test score", "setting": "G1H-G93A transgenic mice [2]; 75th day after birth, 5 mg/kg", "result": "0.0±0.0"}, {"measurement": "Extension reflex test score", "setting": "G1H-G93A transgenic mice [2]; 80th day after birth, 5 mg/kg", "result": "0.0±0.0"}, {"measurement": "Extension reflex test score", "setting": "G1H-G93A transgenic mice [2]; 85th day after birth, 5 mg/kg", "result": "0.0±0.0"}, {"measurement": "Extension reflex test score", "setting": "G1H-G93A transgenic mice [2]; 90th day after birth, 5 mg/kg", "result": "0.0±0.0"}, {"measurement": "Extension reflex test score", "setting": "G1H-G93A transgenic mice [2]; 95th day after birth, 5 mg/kg", "result": "0.0±0.0"}, {"measurement": "Extension reflex test score", "setting": "G1H-G93A transgenic mice [2]; 100th day after birth, 5 mg/kg", "result": "0.0±0.0"}, {"measurement": "Extension reflex test score", "setting": "G1H-G93A transgenic mice [2]; 105th day after birth, 5 mg/kg", "result": "0.0±0.0"}, {"measurement": "effect in extension reflex test as compared to placebo group", "setting": "G1H-G93A transgenic mice [2]; 105th, 110th, 115th and 120th day, 5 mg/kg oral daily from 80th day after birth, Mann-Whitney's U test", "result": "significant effects"}, {"measurement": "Extension reflex test score", "setting": "G1H-G93A transgenic mice [2]; 110th day after birth, 5 mg/kg", "result": "0.1±0.3"}, {"measurement": "Extension reflex test score", "setting": "G1H-G93A transgenic mice [2]; 115th day after birth, 5 mg/kg", "result": "0.5±0.5"}, {"measurement": "Extension reflex test score", "setting": "G1H-G93A transgenic mice [2]; 120th day after birth, 5 mg/kg", "result": "1.3±0.5"}, {"measurement": "Extension reflex test score", "setting": "G1H-G93A transgenic mice [2]; 125th day after birth, 5 mg/kg", "result": "1.8±0.4"}, {"measurement": "Extension reflex test score", "setting": "G1H-G93A transgenic mice [2]; 130th day after birth", "result": "2.0 ± 0.0"}, {"measurement": "Extension reflex test score", "setting": "G1H-G93A transgenic mice [2]; 135th day after birth", "result": "2.0 ± 0.0"}, {"measurement": "Extension reflex test score", "setting": "G1H-G93A transgenic mice [2]; 140th day after birth", "result": "2.0 ± 0.0"}, {"measurement": "Extension reflex test score", "setting": "G1H-G93A transgenic mice [2]; from the 130th day to 140th day after birth", "result": "2.0±0.0"}, {"measurement": "time periods for the respective stages in comparison to placebo group", "setting": "G1H-G93A transgenic mice [3]; 5 mg/kg oral daily from 80th day after birth (before onset), Mann-Whitney's U test", "result": "extended period of the respective stages with significant difference"}, {"measurement": "disease period extending effect in comparison to placebo group", "setting": "G1H-G93A transgenic mice [3]; [4]", "result": "significant extension of the disease period"}, {"measurement": "onset delaying effect in comparison to placebo group", "setting": "G1H-G93A transgenic mice [3]; [4]", "result": "significant delaying of the day of onset"}, {"measurement": "survival period extending effect in comparison to placebo group", "setting": "G1H-G93A transgenic mice [3]; [4]", "result": "significant extension of the survival period"}, {"measurement": "day of onset", "setting": "G1H-G93A transgenic mice [3]; [5]", "result": "111.6 ± 3.7", "unit": "days"}, {"measurement": "disease period", "setting": "G1H-G93A transgenic mice [3]; [5]", "result": "24.3 ± 3.4", "unit": "days"}, {"measurement": "survival period", "setting": "G1H-G93A transgenic mice [3]; [5]", "result": "134.9 ± 3.4", "unit": "days"}, {"measurement": "time period of clinical symptomatological stage 1", "setting": "G1H-G93A transgenic mice [3]; [5]", "result": "7.4±0.7", "unit": "days"}, {"measurement": "time period of clinical symptomatological stage 2", "setting": "G1H-G93A transgenic mice [3]; [5]", "result": "6.4±1.2", "unit": "days"}, {"measurement": "time period of clinical symptomatological stage 3", "setting": "G1H-G93A transgenic mice [3]; [5]", "result": "5.3±1.2", "unit": "days"}, {"measurement": "time period of clinical symptomatological stage 4", "setting": "G1H-G93A transgenic mice [3]; [5]", "result": "3.5±0.5", "unit": "days"}, {"measurement": "time period of clinical symptomatological stage 5", "setting": "G1H-G93A transgenic mice [3]; [5]", "result": "1.7±0.5", "unit": "days"}]}]}
